# Source: patent US20250314644A1, “METHODS COMPRISING DETECTION OF ADP-HEPTOSE” (CHILDREN'S HOSPITAL MEDICAL CENTER, priority 2023, published 2025)
# Columns and labels:
# Dnmt3a^KO cells = assay: RNA-sequencing of HSPCs treated in vitro with ADP-heptose or H2O for 90 minutes; type: cell-based, mouse
# Dnmt3a^−/− mice = assay: Cytokines measured in BM fluid after ADP-heptose in vivo; set-up: species or system mouse
# Procedure: FIG. 9 depicts the effects of ADP-heptose on inflammatory cytokines and downstream signaling. (A) Heatmap of differentially expressed cytokines and chemokines as measured in the BM fluid of Dnmt3a^WT, Dnmt3a^KO, and Dnmt3a^KO; Alpk1^KO mice treated with ADP-heptose (0.5 mg/kg) in vivo. (B) Immunoblotting performed on THP1 cells untreated or treated with ADP-heptose (1 μg/ml) in combination with DMSO (−), UBE2N inhibitor at 5 μM (+), UBE2N inhibitor at 10 μM (++), IRAK1/4 inhibitor at 0.25 μM (+), and IRAK1/4 inhibitor at 0.5 μM (++) for 30 minutes. (C) Immunoblot analysis of NF-kB modulators on THP1 wildtype (WT), IRAK1KO, IRAK4KO, IRAK1/4d^KO, MyD88KO, and TRAF6^KO cells upon treatment with ADP-heptose (1 μg/ml) for 30 minutes.
# Dysregulation of innate immune and inflammatory states is implicated in pre-leukemic conditions and overt leukemia by creating an inflammatory environment suppressive for normal hematopoiesis while promoting leukemic stem and progenitor cell expansion. Moreover, chronic inflammation associated with CHIP is implicated in cardiovascular disease. […] First, to determine whether ADP-heptose treatment creates an inflammatory milieu, Dnmt3a^−/− and WT mice were treated with ADP-heptose and cytokines were measured in the BM fluid.
smiles,measurement,setting,value
"Nc1ncnc2c1ncn2[C@@H]1O[C@H](COP(=O)(O)OP(=O)(O)O[C@@H]2O[C@H]([C@H](O)CO)[C@@H](O)[C@H](O)[C@@H]2O)[C@@H](O)[C@H]1O [ADP-heptose, ADP-D-glycero-β-D-manno-heptose]",gene expression changes (global transcriptomic analysis),Dnmt3a^KO cells; Dnmt3a^−/− compared to WT LSKs,significant gene expression changes
same,logFC,"Dnmt3a^KO cells; gene 2610037D02Rik, Dnmt3a^KO cells",−0.596
same,logFC,"Dnmt3a^KO cells; gene 5031425F14Rik, Dnmt3a^KO cells",0.6597
same,logFC,"Dnmt3a^KO cells; gene 6330549D23Rik, Dnmt3a^KO cells",0.6997
same,logFC,"Dnmt3a^KO cells; gene A130077B15Rik, Dnmt3a^KO cells",−0.592
same,logFC,"Dnmt3a^KO cells; gene AF251705, Dnmt3a^KO cells",0.6212
same,logFC,"Dnmt3a^KO cells; gene Adm, Dnmt3a^KO cells",1.598
same,logFC,"Dnmt3a^KO cells; gene Afp, Dnmt3a^KO cells",0.7049
same,logFC,"Dnmt3a^KO cells; gene Ahrr, Dnmt3a^KO cells",1.585
same,logFC,"Dnmt3a^KO cells; gene Angptl2, Dnmt3a^KO cells",0.6418
same,logFC,"Dnmt3a^KO cells; gene Avil, Dnmt3a^KO cells",1.557
same,logFC,"Dnmt3a^KO cells; gene Baiap2, Dnmt3a^KO cells",0.7135
same,logFC,"Dnmt3a^KO cells; gene Baiap2l1, Dnmt3a^KO cells",0.6616
same,logFC,"Dnmt3a^KO cells; gene C1qb, Dnmt3a^KO cells",0.6904
same,logFC,"Dnmt3a^KO cells; gene C1qc, Dnmt3a^KO cells",0.6327
same,logFC,"Dnmt3a^KO cells; gene Carns1, Dnmt3a^KO cells",0.6216
same,logFC,"Dnmt3a^KO cells; gene Ccl2, Dnmt3a^KO cells",0.6432
same,logFC,"Dnmt3a^KO cells; gene Ccl24, Dnmt3a^KO cells",1.576
same,logFC,"Dnmt3a^KO cells; gene Cd28, Dnmt3a^KO cells",0.6845
same,logFC,"Dnmt3a^KO cells; gene Cd40, Dnmt3a^KO cells",0.6974
same,logFC,"Dnmt3a^KO cells; gene Cd74, Dnmt3a^KO cells",0.6203
same,logFC,"Dnmt3a^KO cells; gene Ces1d, Dnmt3a^KO cells",0.5862
same,logFC,"Dnmt3a^KO cells; gene Chst10, Dnmt3a^KO cells",0.609
same,logFC,"Dnmt3a^KO cells; gene Ciita, Dnmt3a^KO cells",0.6462
same,logFC,"Dnmt3a^KO cells; gene Clec10a, Dnmt3a^KO cells",0.615
same,logFC,"Dnmt3a^KO cells; gene Col1a1, Dnmt3a^KO cells",0.5944
same,logFC,"Dnmt3a^KO cells; gene Col15a1, Dnmt3a^KO cells",0.6093
same,logFC,"Dnmt3a^KO cells; gene Cxcl3, Dnmt3a^KO cells",0.6695
same,logFC,"Dnmt3a^KO cells; gene Cxcr2, Dnmt3a^KO cells",−0.587
same,logFC,"Dnmt3a^KO cells; gene Dcstamp, Dnmt3a^KO cells",0.7137
same,logFC,"Dnmt3a^KO cells; gene Dnah6, Dnmt3a^KO cells",0.6061
same,logFC,"Dnmt3a^KO cells; gene Dqx1, Dnmt3a^KO cells",0.6377
same,logFC,"Dnmt3a^KO cells; gene Emp1, Dnmt3a^KO cells",0.6342
same,logFC,"Dnmt3a^KO cells; gene Etohi1, Dnmt3a^KO cells",−0.586
same,logFC,"Dnmt3a^KO cells; gene Fam167a, Dnmt3a^KO cells",0.6175
same,logFC,"Dnmt3a^KO cells; gene Fblim1, Dnmt3a^KO cells",0.5971
same,logFC,"Dnmt3a^KO cells; gene Flrt2, Dnmt3a^KO cells",0.7192
same,logFC,"Dnmt3a^KO cells; gene Gm8369, Dnmt3a^KO cells",−0.599
same,logFC,"Dnmt3a^KO cells; gene Gm17455, Dnmt3a^KO cells",0.7125
same,logFC,"Dnmt3a^KO cells; gene Grap, Dnmt3a^KO cells",0.6793
same,logFC,"Dnmt3a^KO cells; gene Grm1, Dnmt3a^KO cells",1.762
same,logFC,"Dnmt3a^KO cells; gene Gzmb, Dnmt3a^KO cells",0.674
same,logFC,"Dnmt3a^KO cells; gene Gzmc, Dnmt3a^KO cells",1.782
same,logFC,"Dnmt3a^KO cells; gene H2-DMb2, Dnmt3a^KO cells",0.6529
same,logFC,"Dnmt3a^KO cells; gene H2-Eb1, Dnmt3a^KO cells",0.5954
same,logFC,"Dnmt3a^KO cells; gene H2-Eb2, Dnmt3a^KO cells",0.6221
same,logFC,"Dnmt3a^KO cells; gene H2-K2, Dnmt3a^KO cells",0.6688
same,logFC,"Dnmt3a^KO cells; gene Hic1, Dnmt3a^KO cells",1.783
same,logFC,"Dnmt3a^KO cells; gene Hist1h2ag, Dnmt3a^KO cells",0.6273
same,logFC,"Dnmt3a^KO cells; gene Hist1h2bc, Dnmt3a^KO cells",0.6716
same,logFC,"Dnmt3a^KO cells; gene Hist1h2be, Dnmt3a^KO cells",0.6244
same,logFC,"Dnmt3a^KO cells; gene Hist1h2bf, Dnmt3a^KO cells",0.6891
same,logFC,"Dnmt3a^KO cells; gene Hist1h2bj, Dnmt3a^KO cells",0.665
same,logFC,"Dnmt3a^KO cells; gene Hist1h4d, Dnmt3a^KO cells",0.592
same,logFC,"Dnmt3a^KO cells; gene Hyal1, Dnmt3a^KO cells",0.599
same,logFC,"Dnmt3a^KO cells; gene Igf2bp2, Dnmt3a^KO cells",0.6643
same,logFC,"Dnmt3a^KO cells; gene Il12rb1, Dnmt3a^KO cells",0.6261
same,logFC,"Dnmt3a^KO cells; gene Iqcg, Dnmt3a^KO cells",0.6826
same,logFC,"Dnmt3a^KO cells; gene Itgb7, Dnmt3a^KO cells",0.6248
same,logFC,"Dnmt3a^KO cells; gene Lars2, Dnmt3a^KO cells",0.6326
same,logFC,"Dnmt3a^KO cells; gene Lif, Dnmt3a^KO cells",0.6432
same,logFC,"Dnmt3a^KO cells; gene Loxl3, Dnmt3a^KO cells",0.5934
same,logFC,"Dnmt3a^KO cells; gene Lrrc51, Dnmt3a^KO cells",0.669
same,logFC,"Dnmt3a^KO cells; gene Map3k15, Dnmt3a^KO cells",0.7124
same,logFC,"Dnmt3a^KO cells; gene Matk, Dnmt3a^KO cells",0.5934
same,logFC,"Dnmt3a^KO cells; gene Mir6236, Dnmt3a^KO cells",0.6256
same,logFC,"Dnmt3a^KO cells; gene Mmp12, Dnmt3a^KO cells",0.7097
same,logFC,"Dnmt3a^KO cells; gene Mrc1, Dnmt3a^KO cells",0.7023
same,logFC,"Dnmt3a^KO cells; gene N4bp3, Dnmt3a^KO cells",0.6853
same,logFC,"Dnmt3a^KO cells; gene Nqo1, Dnmt3a^KO cells",0.7094
same,logFC,"Dnmt3a^KO cells; gene Orm1, Dnmt3a^KO cells",−0.598
same,logFC,"Dnmt3a^KO cells; gene P2rx3, Dnmt3a^KO cells",0.7048
same,logFC,"Dnmt3a^KO cells; gene Pcbp3, Dnmt3a^KO cells",0.6997
same,logFC,"Dnmt3a^KO cells; gene Pf4, Dnmt3a^KO cells",0.7165
same,logFC,"Dnmt3a^KO cells; gene Phf1, Dnmt3a^KO cells",0.595
same,logFC,"Dnmt3a^KO cells; gene Plekhn1, Dnmt3a^KO cells",0.6207
same,logFC,"Dnmt3a^KO cells; gene Ppp1r3d, Dnmt3a^KO cells",−0.595
same,logFC,"Dnmt3a^KO cells; gene Procr, Dnmt3a^KO cells",−0.595
same,logFC,"Dnmt3a^KO cells; gene Ptgs1, Dnmt3a^KO cells",0.6215
same,logFC,"Dnmt3a^KO cells; gene Ptprn, Dnmt3a^KO cells",0.5867
same,logFC,"Dnmt3a^KO cells; gene Pvrl1, Dnmt3a^KO cells",0.663
same,logFC,"Dnmt3a^KO cells; gene Rap1gap, Dnmt3a^KO cells",0.6406
same,logFC,"Dnmt3a^KO cells; gene Retnlg, Dnmt3a^KO cells",0.6829
same,logFC,"Dnmt3a^KO cells; gene Rn45s, Dnmt3a^KO cells",0.6912
same,logFC,"Dnmt3a^KO cells; gene Rptoros, Dnmt3a^KO cells",0.6692
same,logFC,"Dnmt3a^KO cells; gene Scn3a, Dnmt3a^KO cells",1.51
same,logFC,"Dnmt3a^KO cells; gene Serpinb2, Dnmt3a^KO cells",0.6945
same,logFC,"Dnmt3a^KO cells; gene Slc36a2, Dnmt3a^KO cells",0.7191
same,logFC,"Dnmt3a^KO cells; gene Spag1, Dnmt3a^KO cells",−0.587
same,logFC,"Dnmt3a^KO cells; gene Spry1, Dnmt3a^KO cells",−0.595
same,logFC,"Dnmt3a^KO cells; gene Srp54b, Dnmt3a^KO cells",1.636
same,logFC,"Dnmt3a^KO cells; gene Stfa2l1, Dnmt3a^KO cells",−0.599
same,logFC,"Dnmt3a^KO cells; gene Tdrkh, Dnmt3a^KO cells",0.5973
same,logFC,"Dnmt3a^KO cells; gene Tesc, Dnmt3a^KO cells",0.607
same,logFC,"Dnmt3a^KO cells; gene Tjp3, Dnmt3a^KO cells",0.5969
same,logFC,"Dnmt3a^KO cells; gene Tlr5, Dnmt3a^KO cells",0.5879
same,logFC,"Dnmt3a^KO cells; gene Tpmt, Dnmt3a^KO cells",−0.598
same,logFC,"Dnmt3a^KO cells; gene Trem2, Dnmt3a^KO cells",0.6257
same,logFC,"Dnmt3a^KO cells; gene Trib3, Dnmt3a^KO cells",0.677
same,logFC,"Dnmt3a^KO cells; gene Zfp184, Dnmt3a^KO cells",−0.594
same,logFC,"Dnmt3a^KO cells; gene Zfp784, Dnmt3a^KO cells",0.6147
same,"cytokines in BM fluid (IL-1β, G-CSF, TNFα)",Dnmt3a^−/− mice,elevated expression of numerous cytokines
